Experimental data reported in US20240101570A1 (AMGEN INC., priority 2020, published 2024).

What was measured:
HCT116 WT cells = experiment: HCT116 WT cell proliferation / viability (CellTiter-Glo, 6 days); format: cell-based; details: Homo sapiens, HCT-116, 144 h, HCT116 WT cells, 6 days, CellTiter-Glo; read-out: HCT-116 WT IC50
Outline: (§1)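 Viability read by CellTiter-Glo after 6-day compound exposure of MTAP-null and wild-type HCT116 cells grown in RPMI 1640 with 10% FBS. Dosing used 1:3 steps from 1 or 10 μM (8-9 points) or 1:2 steps from 10 or 50 μM (22 points); IC50 taken where fitted curve crosses 50% of control.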

HCT116 MTAP null cells = experiment: HCT116 MTAP null cell proliferation / viability (CellTiter-Glo, 6 days); format: cell-based; details: HCT116-MTAP null, 144 h, HCT116 MTAP null cells, 6 days, CellTiter-Glo; read-out: HCT-116 MTAP null IC50
Outline: as §1

IC50 (HCT116 WT cells) [nM] | IC50 (HCT116 MTAP null cells) [nM] | SMILES
> 10000 | 415 | CN(Cc1ccc(Cl)cn1)C(=O)c1cc2c3c(c(N)nc2cn1)COC3 [Example 694, 4-amino-N-((5-chloro-2-pyridinyl)methyl)-N-methyl-1,3-dihydrofuro[3,4-c][1,7]naphthyridine-8-carboxamide]
4990 | 210 | CCN(Cc1ccc(C(F)(F)F)nn1)C(=O)c1ccc2nc(N)c3c(c2c1)COC3 [Example 695, 4-amino-N-ethyl-N-((6-(trifluoromethyl)-3-pyridazinyl)methyl)-1,3-dihydrofuro[3,4-c]quinoline-8-carboxamide]
> 10000 | 261 | CCN(Cc1ccc(C(F)(F)F)nn1)C(=O)c1cc2c3c(c(N)nc2cn1)COC3 [Example 696, 4-amino-N-ethyl-N-((6-(trifluoromethyl)-3-pyridazinyl)methyl)-1,3-dihydrofuro[3,4-c][1,7]naphthyridine-8-carboxamide]
4500 | 206 | CCN(Cc1ccc(Cl)cn1)C(=O)c1cc2c3c(c(N)nc2cn1)COC3 [Example 698, 4-amino-N-((5-chloro-2-pyridinyl)methyl)-N-ethyl-1,3-dihydrofuro[3,4-c][1,7]naphthyridine-8-carboxamide]
7250 | 193 | CCN(Cc1ccc(Cl)cn1)C(=O)c1ccc2nc(N)c3c(c2c1)COC3 [Example 701, 4-amino-N-((5-chloro-2-pyridinyl)methyl)-N-ethyl-1,3-dihydrofuro[3,4-c]quinoline-8-carboxamide]
4120 | 470 | CN(Cc1ccc(Cl)cn1)C(=O)c1ccc2nc(N)c3c(c2c1)COC3 [Example 702, 4-amino-N-((5-chloro-2-pyridinyl)methyl)-N-methyl-1,3-dihydrofuro[3,4-c]quinoline-8-carboxamide]
8150 | 337 | CCN(Cc1ccc(C(F)(F)F)nc1)C(=O)c1ccc2nc(N)c3c(c2c1)COC3 [Example 703, 4-amino-N-ethyl-N-((6-(trifluoromethyl)-3-pyridinyl)methyl)-1,3-dihydrofuro[3,4-c]quinoline-8-carboxamide]
> 10000 | 549 | CCN(Cc1ccc(C(F)(F)F)nc1)C(=O)c1cc2c3c(c(N)nc2cn1)COC3 [Example 704, 4-amino-N-ethyl-N-((6-(trifluoromethyl)-3-pyridinyl)methyl)-1,3-dihydrofuro[3,4-c][1,7]naphthyridine-8-carboxamide]
3450 | 172 | CCN(Cc1ccc(C(F)(F)F)cc1)C(=O)c1ccc2nc(N)c3c(c2c1)COC3 [Example 706, 4-amino-N-ethyl-N-(4-(trifluoromethyl)benzyl)-1,3-dihydrofuro[3,4-c]quinoline-8-carboxamide]
2870 | 106 | CCN(Cc1ccc(C(F)(F)F)cc1)C(=O)c1cc2c3c(c(N)nc2cn1)COC3 [Example 707, 4-amino-N-ethyl-N-(4-(trifluoromethyl)benzyl)-1,3-dihydrofuro[3,4-c][1,7]naphthyridine-8-carboxamide]
8220 | 153 | CCN(Cc1ccc(Br)nn1)C(=O)c1ccc2nc(N)c3c(c2c1)COC3 [Example 708, 4-amino-N-((6-bromo-3-pyridazinyl)methyl)-N-ethyl-1,3-dihydrofuro[3,4-c]quinoline-8-carboxamide]
> 10000 | 484 | CCN(Cc1ccc(Br)nn1)C(=O)c1cc2c3c(c(N)nc2cn1)COC3 [Example 710, 4-amino-N-((6-bromo-3-pyridazinyl)methyl)-N-ethyl-1,3-dihydrofuro[3,4-c][1,7]naphthyridine-8-carboxamide]
4780 | 148 | Cn1cc(N(Cc2ccc(C(F)(F)F)nn2)C(=O)c2cc3c4c(c(N)nc3cn2)COC4)cn1 [Example 711, 4-amino-N-(1-methyl-1H-pyrazol-4-yl)-N-((6-(trifluoromethyl)-3-pyridazinyl)methyl)-1,3-dihydrofuro[3,4-c][1,7]naphthyridine-8-carboxamide]
> 50000 | 2000 | Nc1nc2cnc(C(=O)N(Cc3ccc(C(F)(F)F)nn3)CC(F)(F)F)cc2c2c1COC2 [Example 712, 4-amino-N-(2,2,2-trifluoroethyl)-N-((6-(trifluoromethyl)-3-pyridazinyl)methyl)-1,3-dihydrofuro[3,4-c][1,7]naphthyridine-8-carboxamide]
> 50000 | 5110 | Nc1nc2ccc(C(=O)N(Cc3ccc(C(F)(F)F)nn3)C3COC3)cc2c2c1COC2 [Example 713, 4-amino-N-(3-oxetanyl)-N-((6-(trifluoromethyl)-3-pyridazinyl)methyl)-1,3-dihydrofuro[3,4-c]quinoline-8-carboxamide]
124 | 8 | Cn1cc(N(Cc2ccc(C(F)(F)F)cn2)C(=O)c2cc3c4c(c(N)nc3cc2F)COC4)cn1 [Example 714, 4-amino-7-fluoro-N-(1-methyl-1H-pyrazol-4-yl)-N-((5-(trifluoromethyl)-2-pyridinyl)methyl)-1,3-dihydrofuro[3,4-c]quinoline-8-carboxamide]
70 | 6 | Cn1cc(N(Cc2ccc(C(F)(F)F)cn2)C(=O)c2cc3c4c(c(N)nc3cc2Cl)COC4)cn1 [Example 715, 4-amino-7-chloro-N-(1-methyl-1H-pyrazol-4-yl)-N-((5-(trifluoromethyl)-2-pyridinyl)methyl)-1,3-dihydrofuro[3,4-c]quinoline-8-carboxamide]
7760 | 609 | CC(C)N(Cc1ccc(Cl)cn1)C(=O)c1ccc2nc(N)c3c(c2c1)COC3 [Example 717, 4-amino-N-((5-chloro-2-pyridinyl)methyl)-N-(2-propanyl)-1,3-dihydrofuro[3,4-c]quinoline-8-carboxamide]
16400 | 281 | CC(C)N(Cc1ccc(Cl)cn1)C(=O)c1cc2c3c(c(N)nc2cn1)COC3 [Example 718, 4-amino-N-((5-chloro-2-pyridinyl)methyl)-N-(2-propanyl)-1,3-dihydrofuro[3,4-c][1,7]naphthyridine-8-carboxamide]
> 50000 | 14900 | CCN(Cc1ncn(C)n1)C(=O)c1ccc2nc(N)c3c(c2c1)CO[C@@H]3C [Example 720, (3R)-4-amino-N-ethyl-3-methyl-N-((1-methyl-1H-1,2,4-triazol-3-yl)methyl)-1,3-dihydrofuro[3,4-c]quinoline-8-carboxamide]
9410 | 209 | Nc1nc2cnc(C(=O)N(Cc3ccc(C(F)(F)F)nn3)C3CCC3)cc2c2c1COC2 [Example 721, 4-amino-N-cyclobutyl-N-((6-(trifluoromethyl)-3-pyridazinyl)methyl)-1,3-dihydrofuro[3,4-c][1,7]naphthyridine-8-carboxamide]
3350 | 85 | C[C@H]1OCc2c1c(N)nc1ccc(C(=O)N(Cc3ccc(C(F)(F)F)nn3)C3CCC3)cc21 [Example 722, (3R)-4-amino-N-cyclobutyl-3-methyl-N-((6-(trifluoromethyl)-3-pyridazinyl)methyl)-1,3-dihydrofuro[3,4-c]quinoline-8-carboxamide]
6020 | 157 | CCN(Cc1ccc(OC(F)F)nn1)C(=O)c1ccc2nc(N)c3c(c2c1)COC3 [Example 723, 4-amino-N-((6-(difluoromethoxy)-3-pyridazinyl)methyl)-N-ethyl-1,3-dihydrofuro[3,4-c]quinoline-8-carboxamide]
2440 | 54 | CCN(Cc1ccc(OC(F)F)nn1)C(=O)c1cc2c3c(c(N)nc2cc1F)COC3 [Example 724, 4-amino-N-((6-(difluoromethoxy)-3-pyridazinyl)methyl)-N-ethyl-7-fluoro-1,3-dihydrofuro[3,4-c]quinoline-8-carboxamide]
7520 | 109 | CCN(Cc1ccc(OC(F)F)nn1)C(=O)c1ccc2nc(N)c3c(c2c1)CO[C@@H]3C [Example 726, (3R)-4-amino-N-((6-(difluoromethoxy)-3-pyridazinyl)methyl)-N-ethyl-3-methyl-1,3-dihydrofuro[3,4-c]quinoline-8-carboxamide]
663 | 47 | COC[C@@H](C)N(Cc1ccc(C(F)(F)F)cn1)C(=O)c1cc2c3c(c(N)nc2cn1)COC3 [Example 728, 4-amino-N-((2R)-1-methoxy-2-propanyl)-N-((5-(trifluoromethyl)-2-pyridinyl)methyl)-1,3-dihydrofuro[3,4-c][1,7]naphthyridine-8-carboxamide]
534 | 19 | Nc1nc2cc(F)c(C(=O)N(Cc3ccc(C(F)(F)F)cn3)c3cnn(C(F)(F)F)c3)cc2c2c1COC2 [Example 729, 4-amino-7-fluoro-N-(1-(trifluoromethyl)-1H-pyrazol-4-yl)-N-((5-(trifluoromethyl)-2-pyridinyl)methyl)-1,3-dihydrofuro[3,4-c]quinoline-8-carboxamide]
620 | 17 | Nc1nc2cc(F)c(C(=O)N(Cc3ccc(C(F)(F)F)nn3)CC3CC3)cc2c2c1COC2 [Example 730, 4-amino-N-(cyclopropylmethyl)-7-fluoro-N-((6-(trifluoromethyl)-3-pyridazinyl)methyl)-1,3-dihydrofuro[3,4-c]quinoline-8-carboxamide]
2090 | 47 | Cn1ncc2c3cc(C(=O)N(Cc4ccc(C(F)(F)F)nn4)CC4CC4)c(F)cc3nc(N)c21 [Example 731, 4-amino-N-(cyclopropylmethyl)-7-fluoro-3-methyl-N-((6-(trifluoromethyl)-3-pyridazinyl)methyl)-3H-pyrazolo[3,4-c]quinoline-8-carboxamide]
